Patent US20110144000A1, “ANTIMICROBIAL POLYPEPTIDE” (priority 2007, published 2011)

Experiments:
[1] = tested on: Enterococcus faecalis; test: Viable count bactericidal assay against E. faecalis; assay type: cell-based; details: mean, ±SEM
Description: (§1) Bacteria were cultivated to mid-log phase (OD620 0.4) in Todd-Hewitt broth, washed, and diluted in incubation buffer (10 mM Tris-Hcl pH 7.4 containing 5 mM glucose). Pseudomonas aeruginosa was grown for 18 hours at 37° C. 50 μl of bacteria (1×10^6 colony forming units (cfu)/mL) were incubated together with various concentrations of peptide or buffer alone for 1 h at 37° C. In order to quantify bactericidal activity, serial dilutions of the incubation mixtures were plated on TH agar. The number of resulting cfu:s were related to bacteria incubated with buffer alone and the results expressed as % killing.
The anti-bacterial activity of the GCP-2/CXCL6 (SEQ ID NO:3) against the gram-positive, facultatively anaerobic bacteria Enterococcus faecalis was determined using the previously described experimental set-up (See Example 3).

[2] = tested on: Neisserria gonorrhoea; test: Viable count bactericidal assay against N. gonorrhoeae; assay type: cell-based, Neisseria gonorrhoeae; details: mean, ±SEM
Description: as §1
The anti-bacterial activity of the GCP-2/CXCL6 (SEQ ID NO:3) against the gram-negative bacteria Neisserria gonorrhoea was determined using the previously described experimental set-up (See Example 3).

[3] = tested on: bacteria; details: literature (Yang et al., 2003; Cole et al., 2001); cited from earlier work
[4] = tested on: Escherichia coli (strain 37.4); test: Viable count bactericidal assay; assay type: cell-based; details: for antibacterial activity compared with GCP-2/CXCL6 holopeptide: fragment comparison, FIG. 1b
Excerpt: (§2) The GAS strain AP1 (40/58) of M1 serotype was from the World Health Organization Collaborating Centre for Reference and Research on Streptococci, Prague, Czech Republic. Streptococcus pyogenes (strain AP1) and Streptococcus Dysgalactiae, sub species equisimilis (strain G41), Staphylococcus aureus (strain 5120), Pseudomonas aeruginosa (strain 1553 initially isolated from a chronic venous ulcer) and Escherichia coli (strain 37.4) were routinely grown in Todd-Hewitt (TH) liquid medium in 5% CO2 and at 37° C. The bacterial strains were obtained from Division of Infection Medicine, Department of Clinical Sciences, Lund University, BMC B14, Tornavagen 10, SE-221 84 Lund, Sweden.
as §1
(§3) GCP-2/CXCL6 (SEQ ID NO:3) as well as parts of CXCL6, i.r., SEQ ID NO:1 and 2 being part of CXCL6 was examined for antibacterial activity against a panel of bacteria relevant during infections of dermis and mucosal surfaces. The bacteria included Gram-positive (Group A streptococci, group G streptococci, and S. aureus) and G-negative (E. coli and P. aeruginosa) bacteria (FIG. 1 a). […] To delineate what regions of the GCP-2/CXCL6 molecule that are responsible for antibacterial activity, a 50 amino acid fragment of the NH2-terminal region (GPV-50) of GCP-2/CXCL6 and a 19 amino acid fragment (APF-19) of the COOH-terminal region (a region with a putative amphiphatic alpha-helical structure), was compared with the GCP-2/CXCL6 holopeptide. Antibacterial activity was investigated against S. pyogenes and E. coli.

[5] = tested on: Streptococcus Dysgalactiae, sub species equisimilis (strain G41); test: Viable count bactericidal assay; assay type: cell-based; details: 1 h at 37° C., at below micromolar concentrations
Excerpt: as §2, §1, §3

[6] = tested on: Staphylococcus aureus (strain 5120); test: Viable count bactericidal assay; assay type: cell-based; details: 1 h at 37° C., at below micromolar concentrations
Excerpt: as §2, §1, §3

[7] = tested on: Streptococcus pyogenes (strain AP1); test: Viable count bactericidal assay; assay type: cell-based; details: for antibacterial activity compared with GCP-2/CXCL6 holopeptide: fragment comparison, FIG. 1b
Excerpt: as §2, §1, §3

[8] = tested on: Pseudomonas aeruginosa (strain 1553); test: Viable count bactericidal assay; assay type: cell-based; details: 1 h at 37° C., at below micromolar concentrations
Excerpt: as §2, §1, §3

[9] = viable count, 1 h at 37° C., at below micromolar concentrations

## GCP-2/CXCL6: Recombinant human chemokine GCP-2/CXCL6 (SEQ ID NO:3) from PeproTech
[1]
  MBC50: 0.46 ± 0.03 μM (mean, ±SEM)
  MBC90: 0.90 ± 0.00 µM
[2]
  MBC50: 0.3 ± 0.1 μM (mean, ±SEM)
  MBC90: 0.8 ± 0.1 µM
[3]
  activity against bacteria: no activity
[4]; [9]
  bactericidal effect: bactericidal effect
[5]
  bactericidal effect: bactericidal effect
[6]
  bactericidal effect: bactericidal effect
[7]; [9]
  bactericidal effect: bactericidal effect
[8]
  bactericidal effect: bactericidal effect

## CXCL5: related ELR-positive CXC chemokine, closest sequence homology to CXCL6 [reference compound]
[3]
  activity against bacteria: no activity against bacteria

## GPVSAVLTELRCTCLRVTLRVNPKTIGKLQVFPAGPQCSKVEVVASLKNG (CXCL6 peptide) [GPV-50, 50 amino acid fragment of the NH2-terminal region of GCP-2/CXCL6]
[4]
  antibacterial activity compared with GCP-2/CXCL6 holopeptide: higher antibacterial activity than APF-19
[7]
  antibacterial activity compared with GCP-2/CXCL6 holopeptide: higher antibacterial activity than APF-19

## APFLKKVIQKILDSGNKKN (CXCL6 peptide) [APF-19, 19 amino acid fragment of the COOH-terminal region of GCP-2/CXCL6]
[4]
  antibacterial activity compared with GCP-2/CXCL6 holopeptide: less antibacterial than the holopeptide
[7]
  antibacterial activity compared with GCP-2/CXCL6 holopeptide: less antibacterial than the holopeptide
